How the values were obtained:
Assay type in all cases: in vivo
[1] = system: Puccinia recondita var. tritici; assay: wheat leaf rust control on wheat seedlings; conditions: 100 ppm, sprayed day before inoculation
Description: (§1) Compounds of this invention were dissolved in acetone in an amount equal to 6% of the final volume and then suspended at a concentration of 100 ppm in purified water containing 250 ppm of the surfactant TREM 014 (polyhydric alcohol esters). This suspension was sprayed to the point of run-off on wheat seedlings. The following day, the plants were inoculated with a spore suspension of Puccinia recondita var. tritici, causal agent of wheat leaf rust, and incubated in a saturated humidity chamber at 20° for 24 hours and then in a growth room for an additional 7 days, when disease ratings were made. Treated plants from successful treatments had few or no rust pustules while the untreated plants had numerous rust pustules on each leaf.

Erysiphe cichoracearum = assay: cucumber powdery mildew control on cucumber seedlings; conditions: 7 days; for pest or weed control at 100 ppm: Golovinomyces cichoracearum, 168 h
Description: Compounds of the previous examples were again dissolved in acetone in an amount equal to 6% of the final volume and then suspended at a concentration of 100 ppm in purified water containing 250 ppm of the surfactant TREM 014 (polyhydric alcohol esters). This suspension was sprayed to the point of run-off on cucumber seedlings. The following day, the plants were inoculated with a spore suspension of the fungus Erysiphe cichoracearum, causal agent of cucumber powdery mildew, and incubated in a growth room for 7 days. Disease ratings were then made. Treated plants from successful treatments had little or no powdery mildew in contrast to untreated plants which were covered with powdery mildew.

Venturia inaequalis = assay: apple scab control on apple seedlings; conditions: 100 ppm; for pest or weed control at 100 ppm: Venturia inaequalis
Description: as §1, with “apple” for “wheat”, “the fungus Venturia inaequalis,” for “Puccinia recondita var. tritici,”, “apple scab,” for “wheat leaf rust,”, “10-12 days.” for “7 days, when disease ratings were made.”, “apple scab lesions when compared to” for “rust pustules while the”, “which were covered with scab lesions.” for “had numerous rust pustules on each leaf.”

Helminthosporium maydis = assay: southern corn leaf blight control on corn seedlings; conditions: for pest or weed control at 100 ppm: Bipolaris maydis, 168 h
Description: Compounds of the previous example were again dissolved in acetone in an amount equal to 6% of the final volume and then suspended at a concentration of 100 ppm in purified water containing 250 ppm of the surfactant TREM 014 (polyhydric alcohol esters). This suspension was sprayed to the point of run-off on corn seedlings. The following day, the plants were inoculated with a spore suspension of Helminthosporium maydis, causal agent of southern corn leaf blight, and incubated in a saturated humidity chamber at 20° for 24 hours and then in a growth room for an additional 7 days, when disease ratings were made. Treated plants from successful treatments had few lesions while the untreated plants had numerous lesions on each leaf.

Cercospora arachidicola = assay: peanut early leafspot control on peanut seedlings; conditions: for pest or weed control at 100 ppm: Mycosphaerella arachidis, 336 h
Description: Compounds of the previous examples were again dissolved in acetone in an amount equal to 6% of the final volume and then suspended at a concentration of 100 ppm in purified water containing 250 ppm of the surfactant TREM 014 (polyhydric alcohol esters). This suspension was sprayed to the point of run-off on peanut seedlings. The following day, the plants were inoculated with a spore suspension of Cercospora arachidicola, causal agent of peanut early leafspot, and incubated in a saturated humidity chamber at 27° for 24 hours and then in a growth room for an additional 14 days, when disease ratings were made. Treated plants from successful treatments had few or no leafspots while the untreated plants had numerous leafspots on each leaf.

Rhizoctonia solani = assay: rice sheath blight control on rice seedlings; conditions: 7 days; for pest or weed control at 100 ppm: Rhizoctonia solani, 168 h
Description: Several compounds of the previous examples were again dissolved in acetone in an amount equal to 6% of the final volume and then suspended at a concentration of 100 ppm in purified water containing 250 ppm of the surfactant TREM 014 (polyhydric alcohol esters). This suspension was sprayed to the point of run-off on rice seedlings. The following day, the plants were inoculated with a mixture of bran and the mycelium of Rhizoctonia solani, causal agent of sheath blight of rice, and incubated in a growth room for 7 days. Disease ratings were then made. Treated plants from successful treatments had little sheath blight in contrast to untreated plants which were covered with sheath blight.

Pyricularia oryzae = assay: whole plant or invertebrate; conditions: 168 h, read-out: % Control of Rice Blast
Phytophthora infestans = assay: whole plant or invertebrate; conditions: for pest or weed control at 100 ppm: Phytophthora infestans, in Solanum lycopersicum, 168 h, read-out: % Control of Tomato Late Blight

Structure (SMILES)	pest or weed control at 100 ppm [1] [%]	pest or weed control at 100 ppm (Erysiphe cichoracearum) [%]	pest or weed control at 100 ppm (Venturia inaequalis) [%]	pest or weed control at 100 ppm (Helminthosporium maydis) [%]	pest or weed control at 100 ppm (Cercospora arachidicola) [%]	pest or weed control at 100 ppm (Rhizoctonia solani) [%]	pest or weed control at 100 ppm (Pyricularia oryzae) [%]	pest or weed control at 100 ppm (Phytophthora infestans) [%]	% Control Wheat Leaf Rust [1] [%]	% Control Cucumber Powdery Mildew (Erysiphe cichoracearum; 100 ppm) [%]	% Control Apple Scab (Venturia inaequalis) [%]	% Control of Southern Corn Leaf Blight (Helminthosporium maydis; 100 ppm) [%]	% Control Peanut Early Leafspot (Cercospora arachidicola; 100 ppm) [%]	% Control of Rice Sheath Blight (Rhizoctonia solani; 100 ppm) [%]	% Control of Tomato Late Blight (Phytophthora infestans; 100 ppm) [%]
C[Si](Cn1ccnc1)(c1ccc(-c2ccccc2)cc1)c1ccc(-c2ccccc2)cc1 [bis(1,1'-Biphenyl-4-yl)(1H-imidazol-1-ylmethyl)methylsilane]	0	0	50	0	60	0	0	0							
C[Si](Cn1ccnc1)(c1ccccc1)c1ccccc1Cl (stereo not drawn) [(2-Chlorophenyl)(1H-imidazol-1-ylmethyl)methyl(phenyl)silane]	0	100	100	0	100	0	0	0							
COc1cccc(OC)c1[Si](C)(C)Cn1ccnc1 [(2,6-Dimethoxyphenyl)dimethyl(1H-imidazol-1-ylmethyl)silane]	0	0	0	50	0	0	0	50							
C[Si](C)(Cn1ccnc1)c1cccc(-c2ccccc2)c1 [(1,1'-Biphenyl-3-yl)dimethyl(1H-imidazol-1-ylmethyl)silane]	90	0	90	90	80	90	80	0							
C[Si](Cn1ccnc1)(c1ccccc1)c1ccc(Cl)cc1Cl (stereo not drawn) [(2,4-Dichlorophenyl)(1H-imidazol-1-ylmethyl)methyl(phenyl)silane]	90	100	80	0	100	0	0	0							
CCCCCCCCCCCCCCCCCC[Si](C)(C)Cn1ccnc1 [Dimethyl(1H-imidazol-1-ylmethyl)octadecylsilane]	0	0	80	0	0	100	80	0							
CC(n1ccnc1)[Si](C)(c1ccc(F)cc1)c1ccc(F)cc1 (stereo not drawn) [bis(4-Fluorophenyl)methyl[1-(1H-imidazol-1-yl)ethyl]silane]	0	100	100		0	90	0	0							
C[Si](C)(Cn1ccnc1)c1ccc(S(C)(=O)=O)cc1 [Dimethyl(1H-imidazol-1-ylmethyl)(4-methylsulfonylphenyl)silane]	0	0	80	0	0	0	100	0							
C[Si](C)(Cn1ccnc1)c1ccc(-c2ccc(Br)cc2)cc1 [(4'-Bromo-1,1'-biphenyl-4-yl)dimethyl(1H-imidazol-1-ylmethyl)silane]	100	100	50	0	90	90	90	0							
O[Si](Cn1ccnc1)(c1ccc(Cl)cc1)c1ccc(Cl)cc1 [[bis(4-chlorophenyl)]hydroxy(1H-imidazol-1-ylmethyl)silane]	80	100	0	0	50	0	0	0							
C[Si](Cn1ccnc1)(c1ccc(F)cc1)c1ccc(-c2ccccc2)cc1 (stereo not drawn) [(1,1'-Biphenyl-4-yl)(4-fluorophenyl)(1H-imidazol-1-ylmethyl)methylsilane]	80	100	50	70	100	0		0							
COc1cccc([Si](C)(C)Cn2ccnc2)c1OC [(2,3-Dimethoxyphenyl)(1H-imidazol-1-ylmethyl)dimethylsilane]	0	100	0	0	0	0	0	0							
C[Si](C)(Cn1ccnc1)c1ccc(Br)cc1 [(4-Bromophenyl)(1H-imidazol-1-ylmethyl)dimethylsilane]	0	100	0	0	0	0	0	30							
CC(C)O[Si](Cn1ccnc1)(OC(C)C)c1ccccc1 [(1H-Imidazol-1-ylmethyl)phenylbis(2-propoxy)silane]	0	0	70	0	0	0		0							
C[Si](C)(Cn1ccnc1)c1ccc(-c2ccccc2)cc1.[Cl][Cu] [1:1 complex of (1,1'-Biphenyl-4-yl)dimethyl(1H-imidazol-1-ylmethyl)silane and Cuprous Chloride]									100	100	100	0	100	50	0
C[Si](Cn1ccnc1)(c1ccc(Cl)cc1)c1ccccc1Cl (stereo not drawn) [(2-Chlorophenyl)(4-chlorophenyl)(1H-imidazol-1-ylmethyl)methylsilane]	100	100	80	0	80	0		0							
